Data as given in US20090111836A1, “Angular Pyranocoumarins, Process for Preparation and Uses Thereof” (CITY UNIVERSITY OF HONG KONG, priority 2007, published 2009).
“And” between values parts separate entries of the source, which are not always exact repeats. Identical values can stand only once. “Also recorded” adds a separate entry of the source.

Columns and labels:
KB V1 cells [1] = test: SRB growth inhibition assay, KB V1; assay type: cell-based, human; details: IC50 KB V1 / IC50 KB-3-1
HepG2-DR cells = test: Reversal of multidrug resistance (fold decrease of anticancer drug IC50), HepG2-DR; assay type: cell-based, human
Method: (§1) Cells and cell culture: cell lines used in the experiments are human hepatoma cell line (HepG2), human leukemia cell line (K562), human epidermoid carcinoma cell line (KB-3-1) and their multidrug resistant sublines HepG2-DR, K562-DR. and KB V1. The culture conditions for all cells are following: at 37° C. and 5% CO2), KB-3-1 and KBV1 were cultured in MEM medium containing 10% fetal bovine serum and 100 U/mL antibiotics; K562, K562-DR, HepG2, HepG2-DR were cultured in RPMI-1640 medium containing 10% fetal bovine serum and 100 U/mL, antibiotics. For maintaining the phenotypic characteristics of multidrug resistance, 1.2 μM and 0.1 μM doxorubicin were respectively added into the mediums of HepG2-DR and K562-DR; 200 ng/mL vinblastine was added into the medium of KBV1. Drug resistant cells were grown in drug free medium for at least 7 days before test.
(§2) Each growth inhibition experiment must be repeated three times and results are expressed as mean±standard deviation (SD). Solvents and media were included as blank control.
(§3) In SRB assay, cells are inoculated at 5000 cells/well in a 96-well microplate and incubated overnight to let cells adhere. Drug treatment lasts for 72 hours and cells are fixed for 1 hour at 4° C. with 50 μl ice-cold 15% trichloroacetic acid and washed with triple-distilled water 5 times. Cellular protein is stained by adding 50 μl of 0.4% SRB in 1% acetic acid for 10 minutes, rinsed with 1% acetic acid 5 times and air-dried. The protein-bound dye is dissolved in 100 μl per well of 10 mM Tris base (pH 10.5). The color intensity of SRB, which positively correlate to cell number in preliminary experiments, is estimated at OD 515 nm.
(§4) 1. Materials and methods: the same with I.
(§5) To evaluate the multidrug resistance reversing ability of (±)-Praeruptorin A derivatives, IC50 values of anticancer drugs in the presence and absence of cis-DMDCK, cis-DMDBK, trans-DMDCK, or trans-DMDBK at certain concentration were determined in HepG2-DR, K562-DR and KB V1 cells. The fold decrease of IC50 value of an anticancer drug in certain cell line achieved by a test compound is calculated (fold decrease=IC50 of an anti-tumor drug alone/IC50 of the anti-tumor drug in combination with the test compound) and is used for evaluating the ability of the test compound to reduce drug resistance. The larger the fold decrease value is, the stronger its ability to reverse drug resistance is. The results were average values of three repetitive tests. Verapamil (P-glycoprotein modulator) is the positive control.

K562-DR cells = test: Reversal of multidrug resistance (fold decrease of anticancer drug IC50), K562-DR; assay type: cell-based, human; details: 4 μM test compound
Method: as §1, §2
In MTT assay, cells are inoculated at 5000 cells/well and are incubated overnight. Drug treatment lasts for 68 h. MTT (5 mg/ml in PBS) is added to each well (1:10 dilution). After incubation for 4 hour at 37° C., 5% CO2, 100 μl of stop solution (10% SDS-50% isobutanol-0.01N HCl) is added to each well to stop the reaction. Viable cell number is estimated by correlating to OD at 570 nm.
as §4, §5

KB V1 cells [2] = test: Reversal of multidrug resistance (fold decrease of anticancer drug IC50), KB V1; assay type: cell-based, human
Method: as §1, §2, §3, §4, §5

P-gp [3] = test: Immunoblotting analysis of P-gp expression, HepG2-DR; assay type: cell-based, human; details: 4 μM, 72 hours
Method: (§6) Immunoblotting analysis of P-gp expression: cells were treated with 4 μM of cis-DMDCK, 4 μM of cis-DMDBK, 4 μM of trans-DMDCK, or 4 μM of trans-DMDBK for 72 hours. Treated cells were collected and mixed well in ice-cold lysis buffer (50 mM Tris pH7.4, 100 mM NaCl, 2 mM EDTA, 1% sodium deoxycholate, 0.1% SDS, 1% triton X-100, 2 mM PMSF, 1% aprotinin) for 30 minutes and then centrifuged to get the total protein. Protein concentration was determined using Bradford assay. In this experiment, 50 μg total protein was separated by 8% SDS-PAGE and electro-transferred to nitrocellulose membranes. The membrane was blocked by 5% skim milk/0.1% Tween-20/TBS (10 mM Tris pH7.5, 100 mM NaCl), and then incubated with anti-P-pg antibody for 1 hour, followed by horseradish-peroxidase-conjugated secondary antibody for another 1 hour. Protein bands were detected by the ECL method.

P-gp [4] = test: Immunoblotting analysis of P-gp expression, KB V1; assay type: cell-based, human; details: KB V1, 4 μM, 72 hours
Method: as §6

P-gp [5] = test: Immunoblotting analysis of P-gp expression, K562-DR; assay type: cell-based, human; details: 4 μM, 72 hours
Method: as §6

P-gp [6] = molecular target: P-gp (Homo sapiens, UniProt P08183); test: Hoechst 33342 efflux assay, HepG2-DR; assay type: cell-based; design: KB V1, HepG2-DR and K562-DR cell expressed P-gp at high level when compared with parental drug sensitive cells thereof; endogenous in cells; host or cells: HepG2-DR (doxorubicin-maintained multidrug resistant subline of HepG2)
Method: Relative amount of intracellular H33342 (%)=100×(FS−F0)/F0
(Fs: cellular fluorescence intensity of H33342 in the presence of a testing drug; F0: cellular fluorescence intensity of H33342 in the absence of any P-gp modulator).
1.4 Hoechst 33342 transport test: HepG2-DR Cells (5×10^4 cells in 100 μL, medium per well) were seeded in 96-well plate and incubated overnight to permit cell attachment. The medium was replaced with fresh medium containing 20 μg/mL Hoechst 33342 and cells were incubated at 37° C. for 1 hour. Cells were then washed with 100 μL ice-cold PBS twice. New medium containing the test compound of various concentrations was added and cells were further incubated at 37° C. for 1 hour. Cells were washed with ice-cold PBS twice and cellular fluorescence intensity was measured at λex=365 nm (λem=460 nm) by a BMG FLUOstar OPTIMA Microplate Reader. Inhibitory effect of the test compound on Hoechst 33342 efflux was expressed as the percentage increase of retained Hoechst 33342 in cells.

Chain of P-gp (Homo sapiens, UniProt P08183) (P08183 whole entry): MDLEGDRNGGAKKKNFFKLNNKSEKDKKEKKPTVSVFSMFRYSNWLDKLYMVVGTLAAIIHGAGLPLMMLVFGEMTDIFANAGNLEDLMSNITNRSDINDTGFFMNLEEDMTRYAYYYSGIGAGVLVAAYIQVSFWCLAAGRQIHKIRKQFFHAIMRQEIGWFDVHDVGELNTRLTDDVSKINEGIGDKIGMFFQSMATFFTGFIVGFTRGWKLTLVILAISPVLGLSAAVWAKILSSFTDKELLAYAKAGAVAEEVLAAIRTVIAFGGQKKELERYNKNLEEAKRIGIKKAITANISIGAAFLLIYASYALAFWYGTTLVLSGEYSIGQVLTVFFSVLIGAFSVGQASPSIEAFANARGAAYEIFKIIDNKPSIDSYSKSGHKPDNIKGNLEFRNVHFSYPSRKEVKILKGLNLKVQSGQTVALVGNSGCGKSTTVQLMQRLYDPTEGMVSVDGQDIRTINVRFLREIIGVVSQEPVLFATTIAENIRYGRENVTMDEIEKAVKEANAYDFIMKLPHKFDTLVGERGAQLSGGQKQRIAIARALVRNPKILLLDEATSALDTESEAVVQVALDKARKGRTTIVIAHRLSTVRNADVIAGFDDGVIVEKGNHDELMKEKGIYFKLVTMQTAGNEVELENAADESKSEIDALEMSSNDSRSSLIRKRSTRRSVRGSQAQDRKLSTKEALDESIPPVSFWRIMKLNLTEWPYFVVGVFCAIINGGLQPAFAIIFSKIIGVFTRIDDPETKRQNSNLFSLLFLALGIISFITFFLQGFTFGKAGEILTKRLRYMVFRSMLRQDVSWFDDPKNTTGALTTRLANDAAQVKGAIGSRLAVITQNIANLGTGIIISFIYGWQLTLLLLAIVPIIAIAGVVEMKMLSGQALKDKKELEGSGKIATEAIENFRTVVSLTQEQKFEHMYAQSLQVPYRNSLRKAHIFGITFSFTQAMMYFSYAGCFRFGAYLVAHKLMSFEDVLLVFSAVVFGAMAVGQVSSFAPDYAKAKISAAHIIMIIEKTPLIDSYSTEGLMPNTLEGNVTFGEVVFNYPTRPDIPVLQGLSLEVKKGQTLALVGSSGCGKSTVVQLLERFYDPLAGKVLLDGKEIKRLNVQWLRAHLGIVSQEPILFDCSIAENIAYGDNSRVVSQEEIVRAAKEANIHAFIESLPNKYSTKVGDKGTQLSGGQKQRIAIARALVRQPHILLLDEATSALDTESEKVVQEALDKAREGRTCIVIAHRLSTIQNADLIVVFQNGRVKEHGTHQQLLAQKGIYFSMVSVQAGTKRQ

Reversing parameter: fold decrease of IC50 of Doxorubicin (HepG2-DR cells; 1 μM test compound)	Reversing parameter: fold decrease of IC50 of Puromycin (HepG2-DR cells; 1 μM test compound)	Reversing parameter: fold decrease of IC50 of Vinblastine (HepG2-DR cells; 1 μM test compound)	Reversing parameter: fold decrease of IC50 of Doxorubicin (HepG2-DR cells; 2 μM test compound)	Reversing parameter: fold decrease of IC50 of Puromycin (HepG2-DR cells; 2 μM test compound)	Reversing parameter: fold decrease of IC50 of Vinblastine (HepG2-DR cells; 2 μM test compound)	Reversing parameter: fold decrease of IC50 of Doxorubicin (HepG2-DR cells; 4 μM test compound)	Reversing parameter: fold decrease of IC50 of Puromycin (HepG2-DR cells; 4 μM test compound)	Reversing parameter: fold decrease of IC50 of Vinblastine (HepG2-DR cells; 4 μM test compound)	Reversing parameter: fold decrease of IC50, verapamil (K562-DR cells) [fold]	Reversing parameter: fold decrease of IC50 of Doxorubicin (K562-DR cells) [fold]	Reversing parameter: fold decrease of IC50 of Puromycin (K562-DR cells) [fold]	Reversing parameter: fold decrease of IC50 of Vinblastine (K562-DR cells) [fold]	Reversing parameter: fold decrease of IC50, verapamil (KB V1 cells [2]; KB V1, 2 μM test compound) [fold]	Reversing parameter: fold decrease of IC50, verapamil (KB V1 cells [2]; KB V1, 4 μM test compound) [fold]	Reversing parameter: fold decrease of IC50 of Puromycin (KB V1 cells [2]; KB V1, 4 μM test compound) [fold]	Structure (SMILES)	Resistant ratio (KB V1 cells [1])	Change in P-gp (MDR1) expression level (P-gp [3])	Change in P-gp (MDR1) expression level (P-gp [4])	Change in P-gp (MDR1) expression level (P-gp [5])	other results
6.2 ± 0.7 fold	4.6 ± 1.3 fold	4.8 ± 4.1 fold	33.5 ± 7.5 fold	15.4 ± 4.6 fold	12.4 ± 6.1 fold	117.1 ± 13.8 fold	74.6 ± 21.2 fold	82.1 ± 13.1 fold	105.8 ± 51.1	18.9 ± 7.9	21.8 ± 3.1	75.6 ± 21.3	6.8 ± 2.9	83.3 ± 35.3	36.8 ± 16.6	COc1ccc(C(=O)O[C@@H]2c3c(ccc4ccc(=O)oc34)OC(C)(C)[C@@H]2OC(=O)c2ccc(OC)c(OC)c2)cc1OC (racemic) [cis-DMDBK, (±)-3′-O,4′-O-bis(3,4-dimethoxybenzoyl)-cis-khellactone]	0.46	no detectable alteration; also recorded: not observed	no detectable alteration; also recorded: not observed	no detectable alteration; also recorded: not observed	Reduction of drug resistance to the four anti-tumor drugs (HepG2-DR cells; 4 μM test compound, range over vinblastine, doxorubicin, puromycin, paclitaxel): 62-117 times; Reversing parameter: fold decrease of IC50 of Doxorubicin (KB V1 cells [2]; KB V1, 2 μM test compound): 5.6 ± 2.4 fold; Reversing parameter: fold decrease of IC50 of Puromycin (KB V1 cells [2]; KB V1, 2 μM test compound): 15.4 ± 3.3 fold; Reversing parameter: fold decrease of IC50 of Vinblastine (KB V1 cells [2]; KB V1, 2 μM test compound): 3.5 ± 1.4 fold; Reversing parameter: fold decrease of IC50 of Doxorubicin (KB V1 cells [2]; KB V1, 4 μM test compound): 16.1 ± 9.5 fold; Reversing parameter: fold decrease of IC50 of Vinblastine (KB V1 cells [2]; KB V1, 4 μM test compound): 51.6 ± 11.0 fold; Highest increase of cellular Hoechst 33342 fluorescence (P-gp [6]; 10 μM): 200%
			8.0 ± 0.6 fold	5.6 ± 0.6 fold	1.9 ± 0.0 fold	59.4 ± 18.5 fold	26.6 ± 6.4 fold	13.9 ± 5.8 fold	27.8 ± 8.7	16.1 ± 9.6	31.1 ± 16.7	31.6 ± 5.1		6.0 ± 3.1	15.3 ± 2.5	COc1ccc(/C=C/C(=O)O[C@@H]2[C@@H](OC(=O)/C=C/c3ccc(OC)c(OC)c3)c3c(ccc4ccc(=O)oc34)OC2(C)C)cc1OC (racemic) [trans-DMDCK, (±)-3′-O,4′-O-bis(3,4-dimethoxycinnamoyl)-trans-khellactone]	0.47	no detectable alteration; also recorded: not observed	no detectable alteration; also recorded: not observed	no detectable alteration; also recorded: not observed	Highest increase of cellular Hoechst 33342 fluorescence (P-gp [6]; 20 μM): about 150%
22 fold and 22.5 ± 9.1 fold	29 fold and 29.5 ± 13.0 fold	45 fold and 45.7 ± 10.3 fold	107 fold and 107.9 ± 51.9 fold	111 fold and 111.1 ± 38.0 fold	105 fold and 105.7 ± 21.2 fold	160 fold and 160.6 ± 12.6 fold	140 fold and 140.9 ± 65.1 fold	130 fold and 129.9 ± 35.5 fold	169.9 ± 39.4	28.8 ± 8.9	38.8 ± 8.9	138.7 ± 39.6	128.2 ± 53.8	499.8 ± 202.8	131.0 ± 7.1	COc1ccc(/C=C/C(=O)O[C@@H]2c3c(ccc4ccc(=O)oc34)OC(C)(C)[C@@H]2OC(=O)/C=C/c2ccc(OC)c(OC)c2)cc1OC (racemic) [cis-DMDCK, (±)-3′-O,4′-O-bis(3,4-dimethoxycinnamoyl)-cis-khellactone]	0.52	no detectable alteration; also recorded: not observed	no detectable alteration; also recorded: not observed	no detectable alteration; also recorded: not observed	Reversing parameter: fold decrease of IC50, verapamil (KB V1 cells [2]; KB V1, 1 μM test compound): 9.0 ± 9.7 fold; Reversing parameter: fold decrease of IC50 of Doxorubicin (KB V1 cells [2]; KB V1, 1 μM test compound): 8.9 ± 2.3 fold; Reversing parameter: fold decrease of IC50 of Puromycin (KB V1 cells [2]; KB V1, 1 μM test compound): 37.0 ± 14.4 fold; Reversing parameter: fold decrease of IC50 of Vinblastine (KB V1 cells [2]; KB V1, 1 μM test compound): 2.3 ± 0.8 fold; Reversing parameter: fold decrease of IC50 of Doxorubicin (KB V1 cells [2]; KB V1, 2 μM test compound): 19.1 ± 11.1 fold; Reversing parameter: fold decrease of IC50 of Puromycin (KB V1 cells [2]; KB V1, 2 μM test compound): 61.4 ± 31.3 fold; Reversing parameter: fold decrease of IC50 of Vinblastine (KB V1 cells [2]; KB V1, 2 μM test compound): 115.0 ± 17.6 fold; Reversing parameter: fold decrease of IC50 of Doxorubicin (KB V1 cells [2]; KB V1, 4 μM test compound): 50.0 ± 19.1 fold; Reversing parameter: fold decrease of IC50 of Vinblastine (KB V1 cells [2]; KB V1, 4 μM test compound): 331.2 ± 155.4 fold; Highest increase of cellular Hoechst 33342 fluorescence (P-gp [6]; 5 μM): 200%
